Test results as given in US20210107886A1, “PREPARATION OF CYCLIC ACETALS FOR FUEL” (TRIAD NATIONAL SECURITY, LLC, priority 2019, published 2021).
Where two headings read alike, the source gives them in different places.

Legend:
[1] = 25° C.; taken from references; cited from earlier work
[2] = 40° C.; taken from references; cited from earlier work
[3] = taken from references; cited from earlier work
[4] = taken from references, cited from earlier work; for Freezing/MP: freezing point: first value of cell; for Freezing/MP: melting point: second value of cell
[5] = Density (Anton Paar SVM 3001); type: physicochemical; conditions: 25° C.
Procedure: (§1) All chemicals and reagent grade solvents were obtained from commercial vendors and were used as received. ^1H and ^13C NMR spectra were obtained at room temperature on a Bruker AV400 MHz spectrometer, with chemical shifts (6) referenced to the residual solvent signal (^1H and ^13C). GC/MS analysis was carried out using a Hewlett-Packard 6890 GC system equipped with a Hewlett-Packard 5973 mass selective detector. FT-IR measurements were collected on a Perkin Elmer Spectrum Two FT-IR, where a drop of compound was pressed between two KBr plates. FTIR shifts were: very strong (vs), strong (s), medium (m), and weak (w). Combustion calorimeter measurements were performed using an IKA C1 compact combustion calorimeter, the NHOC was calculated by taking into consideration the hydrogen content and subtracting from the gross heat of combustion. DSC measurements were performed using a Netzsch DCS 204 F1 Phoenix. Viscosity and density measurements were performed using an Anton Paar SVM 3001. Elemental analysis was performed by Atlantic Microlabs. YSI measurements were conducted at Yale University.
(§2) Two additional factors to consider for diesel fuel formulation are density and net heat of combustion (NHOC). Typically, for a chemical compound to be able to be blended with diesel, it should not decrease the density of the fuel mixture below 0.82 g mL-^1, as the energy content of the fuel brought into the engine is dependent on the density of the fuel.^17, 25 Compounds 1-5 maintained densities slightly higher than that of biodiesel, H1-H3, and petroleum diesel. A related metric is the NHOC, which is a measure of the energy contained in a given quantity of a compound. Additionally reported in Table 2 is the lower heating value (LHV) of compounds 1-5. The LHV of a fuel is defined as the amount of heat released by combusting a specified quantity (initially at 25° C.) and returning the temperature of the combustion products to 150° C., which assumes the latent heat of vaporization of water in the reaction products is not recovered.

[6] = Kinematic viscosity (Anton Paar SVM 3001); type: physicochemical; conditions: 40° C.
Procedure: as §1
The physical properties of the five distinct dioxolanes obtained were analyzed to understand their potential as suitable fuel components.^4-5, 8, 16, 18-20 A tabulated summary of these properties are provided in Table 2. The first metric considered was viscosity. […] If a fuel's viscosity falls outside of the ASTM D 975 specification (>4 mm^2 s^−1), it often leads to poor atomization of the fuel, which results in poor combustion and a subsequent loss of power and decrease in fuel economy.^7 In this respect, compounds 1-5 could be used to thin biodiesel to meet standards for petroleum diesel.

[7] = Net heat of combustion (combustion calorimeter); type: physicochemical
Procedure: as §1, §2

[8] = Water solubility; type: physicochemical
[9] = Lower heating value (LHV); type: physicochemical
Excerpt: as §2

[10] = Boiling point; type: physicochemical
[11] = Flash point; type: physicochemical
[12] = Cloud point of dioxolane blends with 7-component surrogate diesel; type: physicochemical
Procedure: The dioxolanes were blended in percentages of 10%, 20%, or 30% with a 7-component surrogate diesel.
The values range from −9.9° C. to −13.3° C. The numbers of the samples correspond with the dioxolanes as-referenced in FIG. 30. Cloud point is a quality specification for diesel fuels. This is an indicator of the tendency of a fuel to form wax crystals when cold. These crystals can clog the atomizer that injects fuel into the combustion chamber of a diesel engine. Cloud point specifications are a maximum temperature. A material with lower cloud point is more desirable.

[13] = 10% dioxolane in 7-component surrogate diesel (surrogate alone −10.5 ° C.)
[14] = 20% dioxolane in 7-component surrogate diesel (surrogate alone −10.5 ° C.)
[15] = 30% dioxolane in 7-component surrogate diesel (surrogate alone −10.5 ° C.)

Structure (SMILES) | Density [1] | Viscosity [2] | NHOC (net heat of combustion) [3] | Freezing/MP: freezing point [4] | Freezing/MP: melting point [4] | Density [5] | Viscosity [6] | NHOC (net heat of combustion) [7] | solubility [8] | LHV (lower heating value) [9] | Boiling Point [10] | Flash Point [11] | Cloud point of blend [12, 13] | Cloud point of blend [12, 14] | Cloud point of blend [12, 15]
CCCCCCCCCCCC1(C)OCCO1 [H3, 2-methyl-2-undecyl-1,3-dioxolane] | 0.883 g/mL | 4.98 mm^2 s^−1 | 32.28 mJ/L | −25 °C | 0 °C | – | – | – | – | – | – | – | – | – | –
CCCC1OC(C)C(C)O1 (centres unmarked) [Compound 3, 4,5-Dimethyl-2-propyl-1,3-dioxolane] | – | – | – | – | – | 0.894 g/mL | 0.94 mm^2 s^−1 | 27.67 mJ/L | < 40 µg/mL | 30.95 mJ/kg | 161 °C | 42.5 °C | −11.5 °C | −12 °C | −13.3 °C
CCCCCCCC1OC(C)C(C)O1 (centres unmarked) [Compound 5, 4,5-Dimethyl-2-heptyl-1,3-dioxolane] | – | – | – | – | – | 0.883 g/mL | 2.34 mm^2 s^−1 | 30.06 mJ/L | < 40 µg/mL | 34.04 mJ/kg | 188 °C | 79.5 °C | −9.9 °C | −10.8 °C | −11.6 °C
CCCCCCCCCCCC1(C)OC(C)C(C)O1 (centres unmarked) [H1, 2,4,5-trimethyl-2-undecyl-1,3-dioxolane] | 0.868 g/mL | 4.44 mm^2 s^−1 | 31.99 mJ/L | −51 °C | −18 °C | – | – | – | – | – | – | – | – | – | –
CCCCC(CC)C1OC(C)C(C)O1 (centres unmarked) [Compound 2, 2-(1-Ethylpentyl)-4,5-dimethyl-1,3-dioxolane] | – | – | – | – | – | 0.885 g/mL | 1.88 mm^2 s^−1 | 30.41 mJ/L | < 40 µg/mL | 34.36 mJ/kg | 184 °C | 58.3 °C | −10.3 °C | −10.8 °C | −12.5 °C
CCC(CC)C1OC(C)C(C)O1 (centres unmarked) [Compound 1, 2-(1-Ethylpropyl)-4,5-dimethyl-1,3-dioxolane] | – | – | – | – | – | 0.893 g/mL | 1.26 mm^2 s^−1 | 29.45 mJ/L | < 40 µg/mL | 32.98 mJ/kg | 174 °C | 54.4 °C | −10.3 °C | −10.8 °C | −10.8 °C
CCCCCCCCCCCC1(C)OCC(C)O1 (centres unmarked) [H2, 2,4-dimethyl-2-undecyl-1,3-dioxolane] | 0.872 g/mL | 5.15 mm^2 s^−1 | 31.99 mJ/L | −48 °C | −14 °C | – | – | – | – | – | – | – | – | – | –
CCCCCC1OC(C)C(C)O1 (centres unmarked) [Compound 4, 4,5-Dimethyl-2-pentyl-1,3-dioxolane] | – | – | – | – | – | 0.887 g/mL | 1.49 mm^2 s^−1 | 29.20 mJ/L | < 40 µg/mL | 32.92 mJ/kg | 177 °C | 69.5 °C | −10.1 °C | −10.8 °C | −10.4 °C
